In patent publication US20230212180A1, “SUBSTITUTED PYRAZINE COMPOUND, PHARMACEUTICAL COMPOSITION COMPRISING SAME, AND USE THEREOF” (Sichuan Kelun-Biotech Biopharmaceutical Co., Ltd., priority 2020, published 2023) one finds IC50 data, which are given here for 14 molecules.

Read-outs that look alike come from different tables or passages of the source.

Experiment [1] has as its system KYSE-520 cell (human esophageal squamous cell carcinoma cell). The experiment is described as follows: Inhibition of the proliferation activity of KYSE-520 cell (CellTiter-Glo). It counts as cell-based. Conditions: 120 h, KYSE-520 cell proliferation, 5 days. The protocol: Test Example 2: Experiment on the Inhibition of the Proliferation Activity of KYSE-520 Cell (Human Esophageal Squamous Cell Carcinoma Cell)
cell: KYSE-520 (JCRB Cell Bank);
(§1) kit: CellTiter-Glo® Luminescent Cell Viability Assay Kit (Promega).
(§2) inoculation amount of cell: 1500 cells/well;
incubation conditions for compound: 37° C., 5% CO2;
(§3) incubation duration: 5 days;
(§4) detecting temperature: room temperature;
(§5) chemiluminescence detection using the BMG PHERAstar FS reader.
(§6) Cells were cultured in a medium containing 10% fetal bovine serum under the culture conditions of 37° C. and 5% CO2. An appropriate amount of cells were plated into a 96-well plate and cultured overnight in an incubator to allow the cells to adhere to the wall. The following day, the medium was removed and a complete medium containing a pre-diluted compound was added and incubated at 37° C. for 5 days. On the fifth day, the detection reagent CellTiter-Glo® was added into each well. Chemiluminescence was adopted to detect the relative luminescence units (RLUs) of the wells.
(§7) The result of a well containing cell-free medium, treated with CellTiter-Glo®, was obtained as the blank value. Cell viability (%)=(sample RLU−blank RLU)/(vehicle RLU−blank RLU)×100%, and maximum inhibition rate (%)=100%−cell viabilitymax. conc. (%). The half maximal inhibitory concentration (IC50) of the compound was calculated by fitting the curve according to the four-parameter logistic model.
Background: In ATP-based viability assays light output follows the ATP content of the culture.

The target of experiment [2] is T1, CYP3A4 (Homo sapiens, UniProt P08684).
T1 construct: purchased Promega
T1 sequence (P08684 whole entry): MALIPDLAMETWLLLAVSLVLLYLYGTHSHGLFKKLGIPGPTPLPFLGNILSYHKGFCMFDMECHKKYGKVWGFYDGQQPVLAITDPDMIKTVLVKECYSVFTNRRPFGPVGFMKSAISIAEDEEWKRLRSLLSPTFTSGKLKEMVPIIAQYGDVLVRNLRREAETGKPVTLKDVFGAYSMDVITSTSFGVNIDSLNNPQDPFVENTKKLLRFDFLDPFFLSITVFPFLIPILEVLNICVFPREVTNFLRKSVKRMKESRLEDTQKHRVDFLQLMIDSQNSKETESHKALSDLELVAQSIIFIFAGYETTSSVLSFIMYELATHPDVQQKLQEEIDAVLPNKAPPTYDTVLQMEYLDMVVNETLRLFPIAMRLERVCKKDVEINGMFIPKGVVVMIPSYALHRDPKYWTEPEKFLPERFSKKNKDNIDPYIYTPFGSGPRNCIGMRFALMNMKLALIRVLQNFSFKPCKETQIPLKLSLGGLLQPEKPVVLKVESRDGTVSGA
As to the kind of experiment: Biochemical assay for CYP enzyme inhibition, P450-Glo CYP3A4 Screening System. It counts as in vitro ADME. The protocol: (§8) Test Example 5: Biochemical Assay for CYP Enzyme (Cytochrome P450) Inhibition
P450-Glo™ CYP3A4 Screening System, (Promega).
(§9) BMG PHERAstar FS Luminescent.
(§10) The experiments were carried out separately according to the instructions of the kits. The steps were as follows:
3.3. Inhibition Against CYP3A4:
Test group: The test compounds at different concentrations were added into a microplate, and Luciferin-IPA ([…]), K3PO4 (100 mM), and CYP3A4 (2 nM) were added into each well, and pre-incubated at room temperature for 10 min. Thereafter, an NADPH regeneration system was added. The mixture was reacted at room temperature for 30 min. Finally, an equal volume of detection buffer was added and incubated at room temperature for 20 min, followed by chemiluminescence detection.
(§11) Negative control group: The experimental method for the negative control group was the same as that for the test group, except that the test compound was not added.
Blank control group: The experimental method for the blank control group was the same as that for the test group, except that the test compound was not added and that CYP3A4 was replaced with CYP3A4 Membrance (2 nM).
(§12) Percentage inhibition=(1−(the chemiluminescent signal value of the test compound group at a certain test concentration−the chemiluminescent signal value of the blank control group)/(the chemiluminescent signal value of the negative control group−the chemiluminescent signal value of the blank control group))×100%.
(§13) When the percentage inhibition was between 30% and 80%, a single value or a value range of the half maximal inhibitory concentration (IC50) of the compound against the CYP enzyme was estimated based on the following equation: IC50=X×(1−percentage inhibition)/percentage inhibition, wherein X was the test concentration of the compound.

Experiment [3] deals with NCI-H358 cell (human non-small cell lung cancer cell). The experiment is described as follows: Inhibition of the proliferation activity of NCI-H358 cell (CellTiter-Glo). It counts as cell-based. Conditions: 120 h, 5 days. The protocol:
Test Example 4: Experiment on the Inhibition of the Proliferation Activity of NCI-H358 Cell (Human Non-Small Cell Lung Cancer Cell)
cell: NCI-H358 (Nanjing CoBioer);
as §1, §2
incubation conditions for compounds: 37° C., 5% CO2;
as §3, §4, §5, §6, §7

Experiment [4] deals with T2, CYP1A2 (Homo sapiens, UniProt P05177).
T2 construct: purchased Promega
T2 sequence (P05177 1-516): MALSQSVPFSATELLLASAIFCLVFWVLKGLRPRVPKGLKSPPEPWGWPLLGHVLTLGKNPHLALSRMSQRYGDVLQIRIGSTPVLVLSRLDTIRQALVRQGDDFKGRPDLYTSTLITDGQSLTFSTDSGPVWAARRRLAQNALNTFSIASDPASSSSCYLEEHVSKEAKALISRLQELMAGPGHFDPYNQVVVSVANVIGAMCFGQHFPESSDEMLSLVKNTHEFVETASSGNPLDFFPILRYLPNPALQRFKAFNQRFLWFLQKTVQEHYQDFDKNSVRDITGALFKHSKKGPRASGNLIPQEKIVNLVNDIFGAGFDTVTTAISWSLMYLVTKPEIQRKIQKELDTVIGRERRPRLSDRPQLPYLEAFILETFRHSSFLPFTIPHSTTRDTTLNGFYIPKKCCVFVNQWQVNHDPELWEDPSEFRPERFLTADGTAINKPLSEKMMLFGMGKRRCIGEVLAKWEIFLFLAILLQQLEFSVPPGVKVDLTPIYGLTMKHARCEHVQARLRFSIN
The experiment is described as follows: Biochemical assay for CYP enzyme inhibition, P450-Glo CYP1A2 Screening System. It counts as in vitro ADME. The procedure:
as §8
P450-Glo™ CYP1A2 Screening System, (Promega);
as §9, §10
3.1. Inhibition Against CYP1A2:
Test group: The test compounds at different concentrations were added into a microplate, and Luciferin-ME (100 μM), K3PO4 (100 mM), and CYP1A2 (0.01 μmol/μL) were added into each well, and pre-incubated at room temperature for 10 min. Thereafter, an NADPH regeneration system was added. The mixture was reacted at room temperature for 30 min. Finally, an equal volume of detection buffer was added and incubated at room temperature for 20 min, followed by chemiluminescence detection.
as §11
Blank control group: The experimental method for the blank control group was the same as that for the test group, except that the test compound was not added and that CYP1A2 was replaced with CYP1A2 Membrance (0.01 μmol/μL).
as §12, §13

[5] abbreviates: estimated from percentage inhibition, read-out: IC50 (μM) CYP3A4.
[6] abbreviates: estimated from percentage inhibition, read-out: IC50 (μM) CYP1A2.

For orientation: IC50 means the concentration that gives 50% inhibition. Consider `C[C@@H]1OCC2(CCN(c3ncc(Sc4ccnc(N5CC(CO)C5)c4Cl)nc3CO)CC2)[C@@H]1N` [Example 6, (3-((3S,4S)-4-amino-3-methyl-2-oxa-8-azaspiro[4.5]decan-8-yl)-6-(3-chloro-2-(3-(hydroxymethyl)azetidin-1-yl)pyridin-4-ylthio)pyrazin-2-yl)methanol], for which the half-inhibitory concentration (IC50) in experiment [1] was 40 nM; in experiment [2], > 10 µM; in experiment [3], 74 nM; in experiment [4], > 10 µM.

Regarding `C[C@@H]1OCC2(CCN(c3ncc(Sc4ccnc(N5CC(C)(CS(C)(=O)=O)C5)c4Cl)nc3CO)CC2)[C@@H]1N` [Example 29, (3-((3S,4S)-4-amino-3-methyl-2-oxa-8-azaspiro[4.5]decan-8-yl)-6-(3-chloro-2-(3-methyl-3-(methylsulfonylmethyl)azetidin-1-yl)pyridin-4-ylthio)pyrazin-2-yl)methanol], the half-inhibitory concentration (IC50) in experiment [1] is 40 nM; in experiment [2], > 10 µM; in experiment [3], 40 nM; in experiment [4], > 10 µM.

`CC(C)(O)C1CN(c2nccc(Sc3ncc(N4CCC5(CC4)Cc4ncccc4[C@H]5N)nc3N)c2Cl)C1` [Example 46, (S)-2-(1-(4-(3-amino-5-(5-amino-5,7-dihydrospiro[cyclopenta[b]pyridine-6,4′-piperidin]-1′-yl)pyrazin-2-ylthio)-3-chloropyridin-2-yl)azetidin-3-yl)propan-2-ol]: the concentration for half-maximal inhibition (IC50) is 70 nM in experiment [1], > 10 µM in experiment [2] (setting [5]), 28 nM in experiment [3] and > 10 µM in experiment [4] (setting [6]).

On to `CC(C)(O)C1CN(c2nccc(Sc3cnc(N4CCC5(CC4)Cc4ccccc4[C@H]5N)c(CO)n3)c2Cl)C1` [Example 23, (S)-2-(1-(4-(5-(1-amino-1,3-dihydrospiro[indene-2,4′-piperidin]-1′-yl)-6-(hydroxymethyl)pyrazin-2-ylthio)-3-chloropyridin-2-yl)azetidin-3-yl)propan-2-ol], for which the 50% inhibitory concentration (IC50) was 140 nM in experiment [1], > 10 µM in experiment [2] (setting [5]), 5 nM in experiment [3] and > 10 µM in experiment [4] (setting [6]).

In the case of `COCC1CN(c2nccc(Sc3cnc(N4CCC5(CC4)CO[C@@H](C)[C@H]5N)c(CO)n3)c2Cl)C1` [Example 21, (3-((3S,4S)-4-amino-3-methyl-2-oxa-8-azaspiro[4.5]decan-8-yl)-6-(3-chloro-2-(3-(methoxymethyl)azetidin-1-yl)pyridin-4-ylthio)pyrazin-2-yl)methanol], the IC50 was 110 nM in experiment [1], > 10 µM in experiment [2], 30 nM in experiment [3] and > 10 µM in experiment [4].

In the case of `C[C@@H]1OCC2(CCN(c3ncc(Sc4ccnc(N5CC(CC#N)C5)c4Cl)nc3CO)CC2)[C@@H]1N` [Example 5, 2-(1-(4-(5-((3S,4S)-4-amino-3-methyl-2-oxa-8-azaspiro[4.5]decan-8-yl)-6-(hydroxymethyl)pyrazin-2-ylthio)-3-chloropyridin-2-yl)azetidin-3-yl)acetonitrile], the IC50 was 60 nM in experiment [1], > 10 µM in experiment [2], 34 nM in experiment [3] and > 10 µM in experiment [4].

With `Cc1nc(N2CCC3(CC2)CO[C@@H](C)[C@H]3N)c(CO)nc1Sc1ccnc(N2CCCC2CO)c1Cl` (stereo partly drawn) [Example 1], the IC50 in experiment [1] was 360 nM; in experiment [2] it was > 10 µM; in experiment [4] it was > 10 µM.

As for `C[C@@H]1OCC2(CCN(c3ncc(Sc4ccnc(N5CCCC5CO)c4Cl)nc3CO)CC2)[C@@H]1N` (stereo partly drawn) [Example 2], the IC50 is 100 nM in experiment [1], > 10 µM in experiment [2] (setting [5]), 40 nM in experiment [3] and > 10 µM in experiment [4].

On to `C[C@@H]1OCC2(CCN(c3ncc(Sc4ccnc(N5CC(C#N)(CO)C5)c4Cl)nc3CO)CC2)[C@@H]1N` [Example 47, 1-(4-(5-((3S,4S)-4-amino-3-methyl-2-oxa-8-azaspiro[4.5]decan-8-yl)-6-(hydroxymethyl)pyrazin-2-ylthio)-3-chloropyridin-2-yl)-3-(hydroxymethyl)azetidine-3-carbonitrile], for which the half-maximal inhibitory concentration (IC50) in experiment [1] was 40 nM; in experiment [2] it was > 10 µM; in experiment [3], 23 nM; in experiment [4], > 10 µM.

In the case of `C[C@@H]1OCC2(CCN(c3ncc(Sc4ccnc(N5CCCC5CC(N)=O)c4Cl)nc3CO)CC2)[C@@H]1N` (stereo partly drawn) [Example 19, 2-(1-(4-(5-((3S,4S)-4-amino-3-methyl-2-oxa-8-azaspiro[4.5]decan-8-yl)-6-(hydroxymethyl)pyrazin-2-ylthio)-3-chloropyridin-2-yl)pyrrolidin-2-yl)acetamide], the IC50 was 190 nM in experiment [1], > 10 µM in experiment [2] (setting [5]), 220 nM in experiment [3] and > 10 µM in experiment [4].

Regarding `Cc1nc(N2CCC3(CC2)CO[C@@H](C)[C@H]3N)c(CO)nc1Sc1ccnc(N2CC(CS(C)(=O)=O)C2)c1Cl` [Example 25, (3-((3S,4S)-4-amino-3-methyl-2-oxa-8-azaspiro[4.5]decan-8-yl)-6-(3-chloro-2-(3-(methylsulfonylmethyl)azetidin-1-yl)pyridin-4-ylthio)-5-methylpyrazin-2-yl)methanol], the IC50 in experiment [2] was > 10 µM; in experiment [3] it was 150 nM; in experiment [4] it was > 10 µM.

For the molecule `C[C@@H]1OCC2(CCN(c3ncc(Sc4ccnc(N5CC(C(C)(C)O)C5)c4F)nc3CO)CC2)[C@@H]1N` [Example 40, 2-(1-(4-(5-((3S,4S)-4-amino-3-methyl-2-oxa-8-azaspiro[4.5]decan-8-yl)-6-(hydroxymethyl)pyrazin-2-ylthio)-3-fluoropyridin-2-yl)azetidin-3-yl)propan-2-ol], the IC50 was > 10 µM in experiment [2], 30 nM in experiment [3] and > 10 µM in experiment [4].

As to `C[C@@H]1OCC2(CCN(c3cnc(Sc4ccnc(N5CC(C(C)(C)O)C5)c4Cl)cn3)CC2)[C@@H]1N` [Example 28, 2-(1-(4-(5-((3S,4S)-4-amino-3-methyl-2-oxa-8-azaspiro[4.5]decan-8-yl)pyrazin-2-ylthio)-3-chloropyridin-2-yl)azetidin-3-yl)propan-2-ol], the results for the half-inhibitory concentration (IC50) in experiment [2], in experiment [3] and in experiment [4] were > 10 µM, 130 nM and > 10 µM, respectively.

Turning to `CC(C)(O)C1CN(c2nccc(Sc3cnc(N4CCC5(CC4)COC[C@H]5N)c(CO)n3)c2Cl)C1` [Example 13, (S)-2-(1-(4-(5-(4-amino-2-oxa-8-azaspiro[4.5]decan-8-yl)-6-(hydroxymethyl)pyrazin-2-ylthio)-3-chloropyridin-2-yl)azetidin-3-yl)propan-2-ol], the IC50 in experiment [2] (setting [5]) was > 10 µM; in experiment [3], 260 nM; in experiment [4], > 10 µM.
